Test results taken from the supplement of paper PMC11061612.

Legend:
[1] = tested on: D-283MED (Other Solid Carcinomas); experiment: Bliss excess, mean over the matrix (fraction); higher = more synergy;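 note: after 72 h of two-drug dosing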
Summary of the method: (§1)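 Cell lines grown in DMEM/F12 or RPMI with 10% FBS were plated in 1536-well plates and held 24 hours at 37°C, 5% CO2 before 72 hours of exposure to two-drug dose matrices, with DMSO typically at 0.2%. CellTiter-Glo 2.0 luminescence gave viability, which was converted to inhibition. Vehicle wells were set to 0 and blank wells to 1. Combination Emax is the second-highest inhibition in the matrix, and Bliss excess is the observed combination effect minus the expected EA + EB − EA·EB, where EA and EB are the single-agent effects.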

[2] = tested on: BICR78 (Oral Cavity Carcinoma); experiment: combination Emax (second highest fraction inhibited in the dose matrix, 72 h); higher = more inhibition; extreme values may be limits of the assay
Summary of the method: as §1

[3] = tested on: CAL-39 (Other Solid Carcinomas); experiment: as above
Summary of the method: as §1

[4] = tested on: SLVL (B-Cell Non-Hodgkin's Lymphoma); experiment: as above
Summary of the method: as §1

[5] = tested on: TC-YIK (Other Solid Carcinomas); experiment: as above
Summary of the method: as §1

[6] = tested on: HLE (Hepatocellular Carcinoma); experiment: as above
Summary of the method: as §1

[7] = tested on: CS1 (Chondrosarcoma); experiment: as above
Summary of the method: as §1

[8] = tested on: SK-UT-1 (Other Solid Carcinomas); experiment: as above
Summary of the method: as §1

[9] = tested on: HCC38 (Breast Carcinoma); experiment: as above
Summary of the method: as §1

[10] = tested on: NOMO-1 (Acute Myeloid Leukemia); experiment: as above
Summary of the method: as §1

[11] = tested on: EW-22 (Ewing's Sarcoma); experiment: as above
Summary of the method: as §1

[12] = tested on: SK-LMS-1 (Other Solid Carcinomas); experiment: as above
Summary of the method: as §1

[13] = tested on: SK-MEL-1 (Melanoma); experiment: as above
Summary of the method: as §1

[14] = tested on: SNG-M (Endometrial Carcinoma); experiment: as above
Summary of the method: as §1

SMILES | Bliss excess [1] | combination Emax [2] | combination Emax [3] | combination Emax [4] | combination Emax [5] | combination Emax [6] | combination Emax [7] | combination Emax [8] | combination Emax [9] | combination Emax [10] | combination Emax [11] | combination Emax [12] | combination Emax [13] | combination Emax [14]
C=CCn1c(=O)c2cnc(Nc3ccc(N4CCN(C)CC4)cc3)nc2n1-c1cccc(C(C)(C)O)n1 [AZD1775] + CCc1c2c(nc3ccc(O)cc13)-c1cc3c(c(=O)n1C2)COC(=O)[C@]3(O)CC [SN-38] (first compound max 1 µM, partner max 0.3 µM) | -0.0258 | 0.854 | 0.947 | 0.967 | 1 | 0.791 | 0.786 | 0.982 | 0.751 | 0.992 | 0.94 | 0.898 | 0.56 | 0.77
C=CCn1c(=O)c2cnc(Nc3ccc(N4CCN(C)CC4)cc3)nc2n1-c1cccc(C(C)(C)O)n1 [AZD1775] + Nc1ccn([C@@H]2O[C@H](CO)[C@@H](O)C2(F)F)c(=O)n1 [Gemcitabine] (first compound max 1 µM, partner max 0.3 µM) | 0.0097 | 0.718 | 0.914 | 0.954 | 0.865 | 0.709 | 0.661 | 0.916 | 0.747 | 0.992 | 0.921 | 0.804 | 0.422 | 0.751
CN(CCO)CC[C@H](CSc1ccccc1)Nc1ccc(S(=O)(=O)NC(=O)c2ccc(N3CCC([C@@H](O)c4ccccc4-c4ccc(Cl)cc4)CC3)cc2)cc1S(=O)(=O)C(F)(F)F [AZD4320] + CC(=O)O[C@H]1C(=O)[C@@]2(C)[C@H]([C@H](OC(=O)c3ccccc3)[C@]3(O)C[C@H](OC(=O)[C@H](O)[C@@H](NC(=O)c4ccccc4)c4ccccc4)C(C)=C1C3(C)C)[C@]1(OC(C)=O)CO[C@@H]1C[C@@H]2O [Paclitaxel] (first compound max 1 µM, 7x7, partner max 3 µM) | -0.0081 | 0.941 | 1 | 1 | 1 | 0.93 | 0.961 | 0.977 | 0.77 | 0.985 | 0.999 | 1 | 0.623 | 1
CN(CCO)CC[C@H](CSc1ccccc1)Nc1ccc(S(=O)(=O)NC(=O)c2ccc(N3CCC([C@@H](O)c4ccccc4-c4ccc(Cl)cc4)CC3)cc2)cc1S(=O)(=O)C(F)(F)F [AZD4320] + CS(=O)(=O)CCNCc1ccc(-c2ccc3ncnc(Nc4ccc(OCc5cccc(F)c5)c(Cl)c4)c3c2)o1 [Lapatinib] (first compound max 1 µM, 7x7, partner max 10 µM) | 0.013 | 0.456 | 0.97 | 0.98 | 1 | 0.945 | 0.937 | 0.906 | 0.913 | 0.709 | 0.971 | 0.817 | 0.808 | 0.92
CN(CCO)CC[C@H](CSc1ccccc1)Nc1ccc(S(=O)(=O)NC(=O)c2ccc(N3CCC([C@@H](O)c4ccccc4-c4ccc(Cl)cc4)CC3)cc2)cc1S(=O)(=O)C(F)(F)F [AZD4320] + Nc1ccn([C@@H]2O[C@H](CO)[C@@H](O)C2(F)F)c(=O)n1 [Gemcitabine] (first compound max 1 µM, 7x7, partner max 0.3 µM) | -0.0335 | 0.63 | 0.97 | 1 | 1 | 0.887 | 0.789 | 0.978 | 0.813 | 0.987 | 0.999 | 0.984 | 0.649 | 0.913
Cc1c2c(nn1C)CSCc1cc(n(C)n1)CSc1cc(c3ccccc3c1)OCCCc1c(C(=O)O)n(C)c3c-2c(Cl)ccc13 [AZD5991] + CC(=O)O[C@H]1C(=O)[C@@]2(C)[C@H]([C@H](OC(=O)c3ccccc3)[C@]3(O)C[C@H](OC(=O)[C@H](O)[C@@H](NC(=O)c4ccccc4)c4ccccc4)C(C)=C1C3(C)C)[C@]1(OC(C)=O)CO[C@@H]1C[C@@H]2O [Paclitaxel] (first compound max 1 µM, 7x7, partner max 3 µM) | -0.0552 | 0.701 | 0.994 | 0.954 | 0.928 | 0.825 | 0.652 | 0.884 | 0.571 | 1 | 0.871 | 0.919 | 0.21 | 1
Cc1c2c(nn1C)CSCc1cc(n(C)n1)CSc1cc(c3ccccc3c1)OCCCc1c(C(=O)O)n(C)c3c-2c(Cl)ccc13 [AZD5991] + CS(=O)(=O)CCNCc1ccc(-c2ccc3ncnc(Nc4ccc(OCc5cccc(F)c5)c(Cl)c4)c3c2)o1 [Lapatinib] (first compound max 1 µM, 7x7, partner max 10 µM) |  | 0.445 | 0.998 | 0.341 | 0.26 | 0.23 | 0.506 | 0.485 | 0.366 | 0.88 | 0.41 | 0.265 | 0.37 | 0.177
Cc1c2c(nn1C)CSCc1cc(n(C)n1)CSc1cc(c3ccccc3c1)OCCCc1c(C(=O)O)n(C)c3c-2c(Cl)ccc13 [AZD5991] + Nc1ccn([C@@H]2O[C@H](CO)[C@@H](O)C2(F)F)c(=O)n1 [Gemcitabine] (first compound max 1 µM, 7x7, partner max 0.3 µM) | 0.0121 | 0.642 | 0.899 | 0.968 | 0.877 | 0.713 | 0.445 | 0.904 | 0.711 | 0.997 | 0.933 | 0.83 | 0.441 | 0.882
C[C@@H]1COCCN1c1cc(C2([S@](C)(=N)=O)CC2)nc(-c2ccnc3[nH]ccc23)n1 [AZD6738] + C1CC(C1)(C(=O)[O-])C(=O)[O-].N.N.[Pt+2] [Carboplatin] (first compound max 10 µM, 7x7, partner max 10 µM) |  | 0.58 | 0.609 | 0.659 | 0.802 | 0.458 | 0.548 | 0.779 | 0.52 | 0.946 | 0.851 | 0.448 | 0.32 | 0.89
C[C@@H]1COCCN1c1cc(C2([S@](C)(=N)=O)CC2)nc(-c2ccnc3[nH]ccc23)n1 [AZD6738] + Nc1ccn([C@@H]2O[C@H](CO)[C@@H](O)C2(F)F)c(=O)n1 [Gemcitabine] (first compound max 10 µM, 7x7, partner max 0.3 µM) | -0.0179 | 0.79 | 0.961 | 0.955 | 0.893 | 0.834 | 0.734 | 0.979 | 0.744 | 1 | 0.949 | 0.858 | 0.528 | 0.934
Cc1cc2ncnn2cc1Nc1ncc2c(n1)n(C1CCOCC1)c(=O)n2C [AZD7648] + COc1cc([C@@H]2c3cc4c(cc3[C@@H](O[C@@H]3O[C@@H]5CO[C@@H](C)O[C@H]5[C@H](O)[C@H]3O)[C@H]3COC(=O)[C@H]23)OCO4)cc(OC)c1O [Etoposide] (first compound max 10 µM, 7x7, partner max 10 µM) | 0.0835 | 0.666 | 0.701 | 0.924 | 0.976 | 0.729 | 0.649 | 0.926 | 0.486 | 0.98 | 0.938 | 0.822 | 0.558 | 0.867
C[C@@H](Nc1cc(F)cc(F)c1)c1cc(C(=O)N(C)C)cc2c(=O)cc(N3CCOCC3)oc12 [AZD8186] + C1CN(CCC1(C(=O)N[C@@H](CCO)C2=CC=C(C=C2)Cl)N)C3=NC=NC4=C3C=CN4 [AZD5363] (first compound max 10 µM, 7x7, partner max 10 µM) | -0.0143 | 0.394 | 0.667 | 0.709 | 0.294 | 0.144 | 0.264 | 0.344 | 0.262 | 0.45 | 0.45 | 0.494 | 0.154 | 0.429
C[C@@H](Nc1cc(F)cc(F)c1)c1cc(C(=O)N(C)C)cc2c(=O)cc(N3CCOCC3)oc12 [AZD8186] + CC(=O)c1c(C)c2cnc(Nc3ccc(N4CCNCC4)cn3)nc2n(C2CCCC2)c1=O [Palbociclib] (first compound max 10 µM, 7x7, partner max 10 µM) | 0.113 | 0.385 | 0.772 | 0.439 | 0.741 | 0.197 | 0.513 | 0.231 | 0.209 | 0.568 | 0.45 | 0.808 | 0.265 | 0.432
C[C@@H](Oc1cc(-c2cnn(C3CCNCC3)c2)cnc1N)c1c(Cl)ccc(F)c1Cl [Crizotinib] + CC1=C(C(=CC=C1)Cl)NC(=O)C2=CN=C(S2)NC3=CC(=NC(=N3)C)N4CCN(CC4)CCO [Dasatinib] (first compound max 10 µM, 7x7, partner max 2 µM) | 0.0947 | 0.829 | 0.987 | 0.761 | 0.796 | 0.404 | 0.836 | 0.454 | 0.348 | 0.528 | 0.766 | 0.949 | 0.916 | 0.973
C[C@@H](Oc1cc(-c2cnn(C3CCNCC3)c2)cnc1N)c1c(Cl)ccc(F)c1Cl [Crizotinib] + Cn1cnc2c(F)c(Nc3ccc(Br)cc3Cl)c(C(=O)NOCCO)cc21 [Selumetinib] (first compound max 10 µM, 7x7, partner max 10 µM) | -0.0049 | 0.456 | 0.866 | 0.742 | 0.858 | 0.365 | 0.619 | 0.331 | 0.0593 | 0.889 | 0.78 | 0.78 | 0.916 | 0.783
